Test results: publication PMC8272215 (2021)

Legend:
[1] = tested on: poly A-poly U (RNA, polymer) A/U; assay: UV melting at 260 nm; details: Na+ (50 mM sodium cacodylate); pH 7.4; r = [ligand]/[polynucleotide] = 0.05; caption says ctDNA, text b32 says poly A-poly U; per base
[2] = tested on: poly A-poly U (RNA, polymer) A/U; assay: fluorescent indicator displacement (EB); details: Na+ (50 mM sodium cacodylate); pH 7.4; ethidium bromide displaced; polynucleotide 3-4 × 10^-5 M
[3] = tested on: poly A-poly U (RNA, polymer) A/U; assay: fluorescent indicator displacement (DAPI); details: Na+ (50 mM sodium cacodylate); pH 7.4; DAPI displaced; polynucleotide 1-2 × 10^-5 M

Compound | ΔTm [1] | IC50 [2] | IC50 [3]
c1cc2nc(c1)CNCCN(CCCNCCN1CCNCc3cccc(n3)CNCC1)CCNC2 | 17.1 °C | 0.86 [ligand]/[polynucleotide] ratio (dimensionless) | 0.45 [ligand]/[polynucleotide] ratio (dimensionless)
NCCN(CCN)CCCNCCN1CCNCc2cccc(n2)CNCC1 | 21.3 °C | 0.63 [ligand]/[polynucleotide] ratio (dimensionless) | 0.85 [ligand]/[polynucleotide] ratio (dimensionless)
